Reference: patent US6713509B1, “Controlled release formulation for treating COPD” (SmithKline Beecham Corporation, priority 1999, dated 2004)

What was measured:
[1] = system: PDE 4; experiment: IC50 ratio (high/low affinity rolipram binding forms of PDE 4); format: biochemical; details: IC50 for competing with 1 nM [3H]R-rolipram binding (high affinity form) over IC50 for PDE 4 catalytic activity (low affinity form), 1 uM [3H]-cAMP
From the text: This invention covers controlled release formulations which contain a PDE 4 inhibitor, particularly an inhibitor that is specific for PDE 4. A preferred group of inhibitors are those that have an IC50 ratio (high/low binding) of about 0.1 or greater as further described in co-pending U.S. application Ser. No. 08/456,274, now U.S. Pat. No. 6,143,782 and its published counter-part PCT application serial number published Jan. 05, 1995 as WO95/00139; this application is incorporated herein in full by reference as if fully set forth herein. A preferred standard for PDE 4-specific inhibitors which can be used in this invention is one where the compound has an IC50 ratio of about 0.1 or greater; said ratio being the ratio of the IC50 value for competing with the binding of 1 nM of [^3H]R-rolipram to a form of PDE 4 which binds rolipram with a high affinity over the IC50 value for inhibiting the PDE 4 catalytic activity of a form which binds rolipram with a low affinity using 1 uM[^3H]-cAMP as the substrate.

[2] = stability of Carbopol-based controlled release tablet versus moisture level; format: physicochemical; details: moisture removed from the system
From the text: Low moisture levels in certain Carbopol-based controlled release preparations may compromise the stability of the active ingredient cis-4-cyano-4-[3-(cyclopentyloxy)-4-methoxyphenyl]cyclohexane-1-carboxylic acid. High moisture levels may compromise the release rate of such formulations.
It is not known why this occurs when the moisture level is below 0.5% nor is it known how to stop this from occuring, other than to maintain the specified levels of hydration.
The technique for measuring moisture level in this representative tablet was as follows:
The analysis was performed using a Omnimark MARK2 Moisture Analyzer. The Unit determines the moisture content using Infrared heat to dry the sample at a programmed temperature of 120° Celsius with a standby temperature of 80° Celsius. It calculates the percent loss on drying from the initial weight and the final weight of the sample. The results are printed out as % w/w automatically when the analysis is finished. The analysis usually takes 2 to 3 minutes for one measurement of a sample with a moisture level of less than 1.5%w/w.

[3] = oral administration of the PDE4 inhibitor in COPD: effect and side effects; format: in vivo

COc1ccc([C@]2(C#N)CC[C@@H](C(=O)O)CC2)cc1OC1CCCC1 [cis-4-cyano-4-[3-(cyclopentyloxy)-4-methoxyphenyl]cyclohexane-1-carboxylic acid]
therapeutic ratio (IC50 ratio high/low binding) [1]: greater than 0.1
stability in combination with dibasic calcium phosphate (anhydrous) [2]: appears to be unstable when moisture is removed from the system
therapeutic effect in COPD ([3]; administered orally, at certain doses): achieve an effective therapeutic effect in COPD at certain doses
side effects ([3]; as blood levels increase with increased levels of dosing): undesirable side effects such as those attributed to CNS activity begin to be manifested
